Data reported in EP1707622A1, “USE OF COMPOUNDS THAT REGULATE HDAC6 TUBULIN DEACETYLASE ACTIVITY IN THE PREPARATION OF PHARMACEUTICAL COMPOSITIONS, METHOD OF IDENTIFYING THE AFOR[…], SAID PHARMACEUTICAL COMPOUNDS AND APPLICATIONS THEREOF” (UNIVERSIDAD AUTONOMA DE MADRID CIUDAD UNIVERSITARIA …, priority 2004, dated 2005).
Where a SMILES comes first, the peptide text is derived from it. [ ]: non-standard residue; d: D form. Aoe = N[C@@H](CCCCCC(=O)[C@@H]1CO1)C(=O)O

Test system: J77 cells
Experiment: CD3 clustering in the central region of the immunological synapse
Type: cell-based, human
Conditions: J77 cells, relative to cells transfected with the deficient mutant or lymphocytes treated with TSA; Figure 5B

Row | SMILES | percentage of mature synapses
1 | CCCC(=O)[O-].[Na+] [sodium butyrate] | neither trapoxin B nor sodium butyrate modified it in a significant manner
2 | O=C1N[C@@H](Cc2ccccc2)C(=O)N2CCC[C@@H]2C(=O)N[C@@H](CCCCCC(=O)[C@@H]2CO2)C(=O)N[C@H]1Cc1ccccc1 [trapoxin B] (cyclo(FF[dP][Aoe])) | neither trapoxin B nor sodium butyrate modified it in a significant manner
